According to patent US10646459B2, “Sphingosine pathway modulating compounds for the treatment of cancers” (Enzo Biochem, Inc., priority 2017, dated 2020):

Experiments:
PLC-PRF5 cells = assay: Apoptosis/necrosis assay (flow cytometry), PLC-PRF5 cells; type: cell-based, human; conditions: 24 hours; SK1-I 10, 20, 40 μM; ozanimod 5, 10, 20 μM; ABC294640 10, 20, 40 μM; vs no-drug control
Procedure: (§1) Apoptosis/necrosis assays evaluating the effect of different concentrations of each of ozanimod, ABC294640 and SK1-I on the four human hepatocellular carcinoma cell lines, Hep G2, Hep 3B, Huh 7 and PLC-PRF5 were also performed.
(§2) The protocol used for the apoptosis assays was: • Plated cells in 6-well plates and incubated at 37° C. overnight. • Prepared concentrations of test compound and control compound DMSO in media. • Ozanimod: 5 μM, 10 μM, and 20 μM. • ABC294640: 10 μM, 20 μM, and 40 μM. • SK1-I: 10 μM, 20 μM, and 40 μM. • Control: 0.2% DMSO. • Aspirated the medium from the 6-well plates and added test compound concentrations in media or 0.2% DMSO control in media. Incubated at 37° C. for 24 hours. • Collected and processed the cells following the flow cytometry protocol of the GFP Certified® Apoptosis/Necrosis detection kit from Enzo Life Sciences, Inc. (product no. ENZ-51002; Farmingdale, N.Y., USA).
(§3) FIGS. 5-16 present graphs plotting the data from these 24-hour apoptosis assays for the different concentrations of compounds and no-drug control for the various cell lines. Channel FL2 picks up the apoptosis signal and channel FL3 picks up the necrosis signal. Data points in Quadrant 3 (Q3) in the graphs corresponds to cells undergoing apoptosis (cells positive for the apoptosis detection reagent of the assay). Data points in Quadrant 2 (Q2) in the graphs corresponds to cells that are positive for the apoptosis detection reagent and positive for the necrosis detection reagent of the assay (indicative of late-stage apoptosis).

Hep 3B cells = assay: Apoptosis/necrosis assay (flow cytometry), Hep 3B cells; type: cell-based, human; conditions: 24 hours; SK1-I 10, 20, 40 μM; ozanimod 10, 20, 40 μM; ABC294640 10, 20, 40 μM; vs no-drug control
Procedure: as §1
as §2, with “[…],” for “concentrations of test compound and control compound DMSO in media. • Ozanimod: 5 μM, 10 μM, and 20 μM. • ABC294640: 10 μM,”
as §3

Huh7 cells = assay: Apoptosis/necrosis assay (flow cytometry), Huh7 cells; type: cell-based, human; conditions: 24 hours; SK1-I 10, 20, 40 μM; ozanimod 5, 10, 20 μM; ABC294640 10, 20, 40 μM; vs no-drug control
Procedure: as §1, §2, §3

Hep G2 cells = assay: Apoptosis/necrosis assay (flow cytometry), Hep G2 cells; type: cell-based, human; conditions: 24 hours; SK1-I 10, 20, 40 μM; ozanimod 10, 20, 40 μM; ABC294640 10, 20, 40 μM; vs no-drug control
Procedure: as §1
as §2, with “[…],” for “concentrations of test compound and control compound DMSO in media. • Ozanimod: 5 μM, 10 μM, and 20 μM. • ABC294640: 10 μM,”
as §3

[1] = system: primary human hepatocytes; assay: Apoptosis/necrosis assay, normal primary human hepatocytes; type: cell-based; conditions: 24 hours; SK1-I 10, 20, 40 μM; ozanimod 2.5, 5, 10 μM; normal (non-cancerous) cells
Procedure: In still further experiments, the effects of SK1-I and ozanimod on normal (non-cancerous) primary human hepatocytes were investigated. Fresh human hepatocytes in a 12-well plate (HUF12) were obtained from Triangle Research Labs (Durham, N.C., USA; part of Lonza Group) and handled according to the supplier's protocol. The shipping medium was aspirated from each well and replaced with 1 ml per well of warm Hepatocyte Maintenance Medium. The plate was then placed in a 5% CO2 incubator at 37° C. and the hepatocytes were allowed to acclimate overnight. The Hepatocyte Maintenance Medium was replaced before treatment with drug or no-drug control, and the hepatocytes were treated with 0 μM (no-drug control), 10 μM, 20 μM, or 40 μM SK1-I or 0 μM, 2.5 μM, 5 μM, or 10 μM ozanimod for 24 hours under incubation. The cells were then harvested and analyzed using the GFP Certified® Apoptosis/Necrosis detection kit. The results are shown in FIGS. 19A-D for SK1-I and FIGS. 20A-D for ozanimod as follows.

[2] = system: Jurkat cells (human T-cell leukemia cell line); assay: Apoptosis assay, Jurkat cells; type: cell-based; conditions: SK1-I 10, 20 μM; ozanimod 5, 10 μM; vs no-drug control
Procedure: as §2
as §3, with “apoptosis). […]” for “apoptosis).”

[3] = system: human hepatocellular carcinoma cell lines Hep G2, Huh 7, and PLC-PRF5; assay: MTT cell viability assay (48 hours); type: cell-based; conditions: Hep G2, Huh 7, PLC-PRF5
Procedure: The following MTT assay protocol was followed. • Prepared stock solutions: 50 mM ozanimod, 50 mM ABC294640, 10 mM SK1-I in DMSO. • Plated 20000 cells in 160 μl medium per well in 96-well plates for each cell line and incubated at 37° C. overnight. • Prepared compound serial dilutions: for ozanimod and ABC294640: dilute stock 50 mM 1:50 in medium to 1000 μM; for SK1-I, dilute stock 10 mM 1:50 in medium to […], them make serial 1:1.8 fold serial dilution to the titration. For negative control, diluted DMSO 1:50 to medium. • Added 40 μl negative control and serially titrated compounds to 160 μl of cells for each cell line. Performed in triplicate for each cell line. • Incubated at 37° C. for 72 hours. • Performed assay using Vybrant MTT Cell Proliferation Assay kit (V-13154) (Molecular Probes) from Thermo Fisher Scientific (Waltham, Mass. USA).
48-hour treatment MTT assays were also performed as follows.

Compound	induction of apoptosis in PLC-PRF5 cells (PLC-PRF5 cells)	induction of apoptosis in Hep 3B cells (Hep 3B cells)	induction of apoptosis in Huh7 cells (Huh7 cells)	induction of apoptosis in Hep G2 cells (Hep G2 cells)	induction of apoptosis of primary human hepatocytes [1]	induction of apoptosis in Jurkat cells [2]	killing of hepatocellular carcinoma cells (MTT), comparison with PF-543 [3]
O=C(NCc1ccncc1)C12CC3C[C@H](C1)CC(c1ccc(Cl)cc1)(C3)C2 [ABC294640, (7S)-3-(4-chlorophenyl)-N-(pyridin-4-ylmethyl)adamantane-1-carboxamide]	did not substantially induce apoptosis	did not substantially induce apoptosis	failed to induce apoptosis	failed to induce apoptosis			
CC(C)Oc1ccc(-c2nc(-c3cccc4c3CC[C@@H]4NCCO)no2)cc1C#N [Ozanimod, 5-[3-[(1S)-1-(2-hydroxyethylamino)-2,3-dihydro-1H-inden-4-yl]-1,2,4-oxadiazol-5-yl]-2-propan-2-yloxybenzonitrile]	strongly induced apoptosis	strongly induced apoptosis	strongly induced apoptosis	strongly induced apoptosis	did not induce apoptosis	strongly induced apoptosis	
CCCCCc1ccc(/C=C/[C@H](O)[C@@H](CO)NC)cc1 [SK1-I, (E,2R,3S)-2-(methylamino)-5-(4-pentylphenyl)pent-4-ene-1,3-diol]	strongly induced apoptosis	strongly induced apoptosis	strongly induced apoptosis	strongly induced apoptosis	did not induce apoptosis	strongly induced apoptosis	more effective at killing hepatocellular carcinoma cells than PF-543
